# Experimental data from patent US9018175B2 (Takeda GmbH, priority 2009, dated 2015).
# Key:
# [1] = target: T1, human PDE5 (Homo sapiens, UniProt O76074); experiment: Inhibition of PDE5 activity (SPA, [3H]cGMP, platelet lysate); assay type: biochemical; conditions: PDE5 from human platelet lysate; values given as bins; read-out: PDE5A inhibitory values measured as −logIC50 (converted)
# T1 construct: from tissue; host or cells: human platelets from fresh donor blood (10,000 g supernatant of sonicated platelets)
# Experimental: As a source for human PDE5, platelets are used. For that purpose, 150 ml fresh blood from human donors anticoagulated with citrate [final concentration 0.3% (w/v)] is centrifuged at 200 g for 10 min to obtain the so-called platelet-rich-plasma (PRP) as a supernatant. 1/10 volume of ACD solution (85 mM Na3-citrate, 111 mM D-glucose, 71 mM citric acid, pH 4.4) is added to 9/10 volume of PRP. After centrifugation (1,400 g, 10 min) the cell pellet is resuspended in 3 ml homogenization buffer (NaCl 140 mM, KCl 3.8 mM, EGTA (ethylene glycol tetraacetic acid) 1 mM, MgCl2 1 mM, Tris-HCl 20 mM, beta-mercaptoethanol 1 mM, pH 8.2) plus protease-inhibitor mix giving rise to the final concentrations of 0.5 mM Pefablock (Roche), 10 μM Leupeptin, 5 μM Trypsininhibitor, 2 mM Benzamidin and 10 μM Pepstatin A. The suspension is sonified and thereafter centrifuged for 15 min at 10,000 g. The resulting supernatant (platelet lysate) is used for enzymatic testings.
# PDE5 activities were measured in a 96-well platform using SPA (scintillation proximity assay) yttrium silicate beads (RPNQ1050 from GE Healthcare). In a first step the PDE activity operates hydrolysis of either [^3H] cGMP (substrate) into [^3H] 5′GMP. In a second step substrate and product are distinguished following addition of SPA yttrium silicate beads. Indeed, in the presence of zinc sulphate the linear [^3H] […] Close proximity of bound [^3H] […] The test volume is 100 pl and contains 20 mM Tris buffer (pH 7.4), 0.1 mg of BSA (bovine serum albumin)/ml, 5 mM Mg^2+, 1 μM motapizone (PDE3 Inhibitor), 10 nM PDE2 inhibitor 2-(3,4-dimethoxybenzyl)-7-[(1R,2R)-2-hydroxy-1-(2-phenylethyl)propyl]-5-methylimidazo[5,1-f][1,2,4]triazin-4(3H)-one, […] (cyclic guanosine monophosphate) (including about 50,000 cpm of [3H]cGMP as a tracer), 1 pl of the respective compound dilution in dimethylsulfoxide (DMSO) and sufficient PDE5-containing platelet lysat (10,000, g supernatant, see above) to ensure that 10-20 wt % of the cGMP is converted under the said experimental conditions. […] After a preincubation of 5 min at 37° C., the reaction is started by adding the substrate (cGMP) and the assay is incubated for a further 15 min; after that, it is stopped by adding SPA beads (50 pl). In accordance with the manufacturer's instructions, the SPA beads had previously been resuspended in water, but are then diluted 1:3 (v/v) in water; the diluted solution also contains 3 mM […]3-isobutyl-1-methylxanthine (IBMX) to ensure a complete PDE activity stop. After the beads have been sedimented (>30 min), the MTP's are analyzed in commercially available luminescence detection devices. The corresponding IC50 values of the compounds for the inhibition of PDE activity are determined from the concentration-effect curves by means of non-linear regression.
# [2] = target: T2, PDE4B1 (Homo sapiens, UniProt Q07343); experiment: Inhibition of PDE4B1 activity (SPA, [3H]cAMP); assay type: biochemical; conditions: recombinant PDE4B1 expressed in SF21 cells; 0.5 pM [sic] cAMP; values given as bins; read-out: PDE4B1 inhibitory values measured as −logIC50 (converted)
# T2 construct: made in house; host or cells: SF21 insect cells (baculovirus; pCR-Bac vector)
# Experimental: The PDE4B1 (GB no. L20966) was a gift of Prof. M. Conti (Stanford University, USA). It was amplified from the original plasmid (pCMV5) via PCR with primers Rb18 (5′-[…]-3′) and Rb10 (5′-[…]-3′) and cloned into the pCR-Bac vector (Invitrogen, Groningen, NL).
# The recombinant baculovirus was prepared by means of homologous recombination in SF9 insect cells. The expression plasmids were cotransfected with Baculo-Gold DNA (Pharmingen, Hamburg) using a standard protocol (Pharmingen, Hamburg). Wt virus-free recombinant virus supernatants were selected using plaque assay methods. After that, high-titre virus supernatants were prepared by amplifying 3 times. PDE4B1 was expressed in SF21 cells by infecting 2×10^6 cells/ml with an MOI (multiplicity of infection) between 1 and 10 in the serum-free medium Insect Express Sf9-S2 (PAA, Pasching, Austria). The cells were cultured at 28° C. for 48-72 hours, after which they were pelleted for 5-10 min at 1000×g and 4° C.
# The SF21 insect cells were resuspended, at a concentration of approx. 10^7 cells/ml, in ice-cold (4° C.) homogenization buffer (20 mM Tris, pH 8.2, containing the following additions: 140 mM NaCl, 3.8 mM KCl, 1 mM EGTA, 1 mM MgCl2, 10 mM e-mercaptoethanol, 2 mM benzamidine, 0.4 mM Pefablock, 10 pM leupeptin, 10 pM pepstatin A, 5 pM trypsin inhibitor) and disrupted by ultrasonication. The homogenate was then centrifuged for 10 min at 1000, g and the supernatant was stored at −80° C. until subsequent use (see below). The protein content was determined by the Bradford method (BioRad, Munich) using BSA as the standard.
# PDEB1 activities were measured in a 96-well platform using SPA (scintillation proximity assay) yttrium silicate beads (RPNQ1050 from GE Healthcare). In a first step the PDE activity operates hydrolysis of either [^3H] cAMP (substrate) into [^3H] 5′AMP. In a second step substrate and product are distinguished following addition of SPA yttrium silicate beads. Indeed, in the presence of zinc sulphate the linear [^3H] […] Close proximity of bound [^3H] […] The test volume is 100 pl and contains 20 mM Tris buffer (pH 7.4), 0.1 mg/ml of BSA, 5 mM Mg^2+, […] (including about 50,000 cpm of [3H]cAMP), 1 pl of the respective substance dilution in DMSO and sufficient recombinant PDE (1000, g supernatant, see above) to ensure that 10-20% of the cAMP is converted under the said experimental conditions. […] After a preincubation of 5 min at 37° C., the reaction is started by adding the substrate (cAMP) and the assays are incubated for a further 15 min; after that, they are stopped by adding SPA beads (50 pl). In accordance with the manufacturer's instructions, the SPA beads had previously been resuspended in water, but were then diluted 1:3 (v/v) in water; the diluted solution also contains 3 mM IBMX to ensure a complete PDE activity stop. After the beads have been sedimented (>30 min), the MTP's are analyzed in commercially available luminescence detection devices. The corresponding IC50 values of the compounds for the inhibition of PDE4B1 activity are determined from the concentration-effect curves by means of non-linear regression.
# T2 sequence (Q07343 whole entry): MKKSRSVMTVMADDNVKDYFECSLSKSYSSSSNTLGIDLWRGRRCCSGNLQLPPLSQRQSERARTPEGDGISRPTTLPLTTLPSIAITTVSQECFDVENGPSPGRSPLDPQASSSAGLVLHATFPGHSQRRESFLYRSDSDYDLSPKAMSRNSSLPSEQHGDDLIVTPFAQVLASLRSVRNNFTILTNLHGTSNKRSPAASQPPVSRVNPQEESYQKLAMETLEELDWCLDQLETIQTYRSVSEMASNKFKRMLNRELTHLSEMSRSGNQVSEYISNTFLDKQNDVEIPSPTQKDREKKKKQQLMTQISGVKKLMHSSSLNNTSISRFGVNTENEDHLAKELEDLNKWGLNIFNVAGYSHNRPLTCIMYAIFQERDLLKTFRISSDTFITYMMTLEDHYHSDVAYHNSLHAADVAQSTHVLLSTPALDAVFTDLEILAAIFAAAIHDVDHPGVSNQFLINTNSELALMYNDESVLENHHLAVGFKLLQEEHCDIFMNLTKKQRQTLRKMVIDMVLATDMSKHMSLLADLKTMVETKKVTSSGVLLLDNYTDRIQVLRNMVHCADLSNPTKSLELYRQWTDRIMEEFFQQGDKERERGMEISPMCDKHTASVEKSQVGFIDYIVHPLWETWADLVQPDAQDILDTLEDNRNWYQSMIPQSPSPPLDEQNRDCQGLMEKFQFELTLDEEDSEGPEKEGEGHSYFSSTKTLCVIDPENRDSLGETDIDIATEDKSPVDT
Compound,IC50 [1] [nM],IC50 [2] [nM]
"CCOc1cc2c(cc1OC)C(c1cccc(C(=O)N3CCC(n4c(=O)c5sc(-c6cc(OC)ccc6OC)cc5n(Cc5nnn(CC)n5)c4=O)CC3)c1)=N[C@@H]1CCSC[C@H]21 [Example 37, 6-(2,5-dimethoxyphenyl)-3-[1-({3-[(4aR,10bR)-9-ethoxy-8-methoxy-3,4,4a,10b-tetrahydro-1H-thiopyrano[4,3-c]isoquinolin-6-yl]phenyl}carbonyl)piperidin-4-yl]-1-[(2-ethyl-2H-tetrazol-5-yl)methyl]thieno[3,2-d]pyrimidine-2,4(1H,3H)-dione]",< 10,> 10
"CCOc1cc2c(cc1OC)C(c1ccc(C(=O)N3CCC(n4c(=O)c5sc(-c6ccccc6)cc5n(Cc5nnc(CC)o5)c4=O)CC3)cc1)=N[C@@H]1CCSC[C@H]21 [Example 4, 3-[1-({4-[(4aR,10bR)-9-ethoxy-8-methoxy-3,4,4a,10b-tetrahydro-1H-thiopyrano[4,3-c]isoquinolin-6-yl]phenyl}carbonyl)piperidin-4-yl]-1-[(5-ethyl-1,3,4-oxadiazol-2-yl)methyl]-6-phenylthieno[3,2-d]pyrimidine-2,4(1H,3H)-dione]",10 to 100,< 1
"CCCOCc1noc(Cn2c(=O)n(C3CCN(C(=O)c4ccc(C5=N[C@@H]6CCSC[C@@H]6c6cc(OCC)c(OC)cc65)cc4)CC3)c(=O)c3sc(-c4ccccc4)cc32)n1 [Example 51, 3-[1-({4-[(4aR,10bR)-9-ethoxy-8-methoxy-3,4,4a,10b-tetrahydro-1H-thiopyrano[4,3-c]isoquinolin-6-yl]phenyl}carbonyl)piperidin-4-yl]-6-phenyl-1-{[3-(propoxymethyl)-1,2,4-oxadiazol-5-yl]methyl}thieno[3,2-d]pyrimidine-2,4(1H,3H)-dione]",> 100,< 1
"CCOc1cc2c(cc1OC)C(c1ccc(C(=O)N3CCC(n4c(=O)c5sc(-c6ccccc6)cc5n(Cc5nnn(CC)n5)c4=O)CC3)cc1)=N[C@@H]1CCS(=O)(=O)C[C@H]21 [Example 19, 3-[1-({4-[(4aR,10bR)-9-ethoxy-8-methoxy-2,2-dioxido-3,4,4a,10b-tetrahydro-1H-thiopyrano[4,3-c]isoquinolin-6-yl]phenyl}carbonyl)piperidin-4-yl]-1-[(2-ethyl-2H-tetrazol-5-yl)methyl]-6-phenylthieno[3,2-d]pyrimidine-2,4(1H,3H)-dione]",< 10,> 10
"CCOc1cc2c(cc1OC)C(c1ccc(C(=O)N3CCC(n4c(=O)c5sc(-c6ccccc6)cc5n(Cc5ncc(C)s5)c4=O)CC3)cc1)=N[C@@H]1CCSC[C@H]21 [Example 12, 3-[1-({4-[(4aR,10bR)-9-ethoxy-8-methoxy-3,4,4a,10b-tetrahydro-1H-thiopyrano[4,3-c]isoquinolin-6-yl]phenyl}carbonyl)piperidin-4-yl]-1-[(5-methyl-1,3-thiazol-2-yl)methyl]-6-phenylthieno[3,2-d]pyrimidine-2,4(1H,3H)-dione]",10 to 100,1 to 10
"CCOc1cc2c(cc1OC)C(c1ccc(C(=O)N3CCC(n4c(=O)c5sc(-c6ccccc6)cc5n(Cc5nc(C)cs5)c4=O)CC3)cc1)=N[C@@H]1CCSC[C@H]21 [Example 13, 3-[1-({4-[(4aR,10bR)-9-ethoxy-8-methoxy-3,4,4a,10b-tetrahydro-1H-thiopyrano[4,3-c]isoquinolin-6-yl]phenyl}carbonyl)piperidin-4-yl]-1-[(4-methyl-1,3-thiazol-2-yl)methyl]-6-phenylthieno[3,2-d]pyrimidine-2,4(1H,3H)-dione]",> 100,1 to 10
"CCOc1cc2c(cc1OC)C(c1ccc(C(=O)N3CCC(n4c(=O)c5sc(-c6ccccc6F)cc5n(Cc5nnn(CC)n5)c4=O)CC3)cc1)=N[C@@H]1CCSC[C@H]21 [Example 38, 3-[1-({4-[(4aR,10bR)-9-ethoxy-8-methoxy-3,4,4a,10b-tetrahydro-1H-thiopyrano[4,3-c]isoquinolin-6-yl]phenyl}carbonyl)piperidin-4-yl]-1-[(2-ethyl-2H-tetrazol-5-yl)methyl]-6-(2-fluorophenyl)thieno[3,2-d]pyrimidine-2,4(1H,3H)-dione]",< 10,> 10
"CCOc1cc2c(cc1OC)C(c1ccc(C(=O)N3CCC(n4c(=O)c5sc(-c6ccc(F)cc6OC)cc5n(Cc5nc(CC)no5)c4=O)CC3)cc1)=N[C@@H]1CCSC[C@H]21 [Example 43, 3-[1-({4-[(4aR,10bR)-9-ethoxy-8-methoxy-3,4,4a,10b-tetrahydro-1H-thiopyrano[4,3-c]isoquinolin-6-yl]phenyl}carbonyl)piperidin-4-yl]-1-[(3-ethyl-1,2,4-oxadiazol-5-yl)methyl]-6-(4-fluoro-2-methoxyphenyl)thieno[3,2-d]pyrimidine-2,4(1H,3H)-dione]",10 to 100,1 to 10
"CCOc1cc2c(cc1OC)C(c1cccc(C(=O)N3CCC(n4c(=O)c5sc(-c6ccc(F)cc6OC)cc5n(Cc5nc(COC)no5)c4=O)CC3)c1)=N[C@@H]1CCSC[C@H]21 [Example 45, 3-[1-({3-[(4aR,10bR)-9-ethoxy-8-methoxy-3,4,4a,10b-tetrahydro-1H-thiopyrano[4,3-c]isoquinolin-6-yl]phenyl}carbonyl)piperidin-4-yl]-6-(4-fluoro-2-methoxyphenyl)-1-{[3-(methoxymethyl)-1,2,4-oxadiazol-5-yl]methyl}thieno[3,2-d]pyrimidine-2,4(1H,3H)-dione]",< 10,1 to 10
